Source: patent publication US20150148235A1, “HERBICIDE-RESISTANT SUNFLOWER PLANTS WITH MULTIPLE HERBICIDE RESISTANT ALLELES OF AHASL1 AND METHODS OF USE” (NIDERA S.A., priority 2013, published 2015)

System: sunflower lines and hybrids carrying A122T and/or A205V AHASL1 alleles
Test: Greenhouse whole-plant response to imazapyr doses (height, Phytotoxicity Index, dry biomass), Example 2
Assay type: in vivo, Helianthus annuus
Conditions: 14 DAT
Description: Seeds were sown in Petri dishes and, after germination, plantlets were transplanted to pots of 10 cm of diameter in a potting media consisting of equal parts of vermiculite, soil and sand. Plants were grown in a greenhouse under natural light conditions supplemented with 400 W sodium halide lamps to provide a 16 hr daylength. Day/night temperatures were 25 and 20° C., respectively. At the V2-V4 stage (Schneiter & Miller (1981) Crop Sci. 21:901-903) 10 plants of each genotype were randomly assigned to each treatment consisting of eight imazapyr doses (0, 40, 80, 160, 240, 320, 400 and 480 g ai/ha, corresponding to untreated, 0.5×, 1×, 2×, 3×, 4×, 5× and 6×, respectively), and a zero-time biomass determination. Experiment was arranged as a randomized block design with a full factorial (sunflower line×treatment) arrangement of treatments and 10 replications.
On the day of herbicide application ten plants of each genotype were cut at the cotyledonal node and dried at 60° C. for 48 hrs for zero-time dried weight determination.
The remaining plants were maintained for 14 days after imazapyr treatment (DAT) and their height, Phytotoxicity Index (PI) and above ground dry biomass were determined Height was determined as the distance between the cotyledonal node and the apex of each plant. Above ground biomass data from each line were converted to biomass accumulation after application by subtracting the appropriate average zero-time biomass from each sample. Dry biomass data were converted to percentages of the untreated control plants within each line to allow direct comparisons between groups.

[1] = H1 (A205V hybrid), 0.5x=40 g ai/ha
[2] = H2 (A122T hybrid), 0.5x=40 g ai/ha
[3] = H2 (A122T hybrid), 5x=400 g ai/ha
[4] = H3 (A122T/A205V hybrid), 1x=80 g ai/ha
[5] = H3 (A122T/A205V hybrid), 4x=320 g ai/ha
[6] = H3 (A122T/A205V hybrid), 6x=480 g ai/ha
[7] = H4 (A122T/A205V hybrid), 0.5x=40 g ai/ha
[8] = H4 (A122T/A205V hybrid), 2x=160 g ai/ha
[9] = H4 (A122T/A205V hybrid), 3x=240 g ai/ha

## CC(C)C1(C)N=C(c2ncccc2C(=O)O)NC1=O (stereo not drawn) [imazapyr]
0.5x=40 g ai/ha
  Difference between A205V vs A205V/A122T, Phytotoxicity Index: −0.50
  Difference between A205V vs A205V/A122T, biomass accumulation: −4.33 % of untreated
  Difference between A205V vs A205V/A122T, plant height: 0.21 % of untreated
  Difference between A1222T vs A205V/A122T, plant height: 0.49 % of untreated
  ifference between A1222T vs A205V/A122T, Phytotoxicity Index: −0.21
  ifference between A1222T vs A205V/A122T, biomass accumulation: −0.76 % of untreated
1x=80 g ai/ha
  Difference between A205V vs A205V/A122T, Phytotoxicity Index: −0.50
  Difference between A205V vs A205V/A122T, biomass accumulation: −13.45 % of untreated
  Difference between A205V vs A205V/A122T, plant height: 0.89 % of untreated
  Difference between A1222T vs A205V/A122T, plant height: 1.21 % of untreated
  ifference between A1222T vs A205V/A122T, Phytotoxicity Index: −0.21
  ifference between A1222T vs A205V/A122T, biomass accumulation: −2.17 % of untreated
2x=160 g ai/ha
  Difference between A205V vs A205V/A122T, Phytotoxicity Index: 1.66
  Difference between A205V vs A205V/A122T, biomass accumulation: −30.47 % of untreated
  Difference between A205V vs A205V/A122T, plant height: −24.63 % of untreated
  Difference between A1222T vs A205V/A122T, plant height: −0.32 % of untreated
  ifference between A1222T vs A205V/A122T, Phytotoxicity Index: −0.20
  ifference between A1222T vs A205V/A122T, biomass accumulation: −1.07 % of untreated
3x=240 g ai/ha
  Difference between A205V vs A205V/A122T, Phytotoxicity Index: 4.65
  Difference between A205V vs A205V/A122T, biomass accumulation: −41.42 % of untreated
  Difference between A205V vs A205V/A122T, plant height: −46.79 % of untreated
  Difference between A1222T vs A205V/A122T, plant height: −1.22 % of untreated
  ifference between A1222T vs A205V/A122T, Phytotoxicity Index: −0.17
  ifference between A1222T vs A205V/A122T, biomass accumulation: 0.55 % of untreated
4x=320 g ai/ha
  Difference between A205V vs A205V/A122T, Phytotoxicity Index: 6.92
  Difference between A205V vs A205V/A122T, biomass accumulation: −52.87 % of untreated
  Difference between A205V vs A205V/A122T, plant height: −62.01 % of untreated
  Difference between A1222T vs A205V/A122T, plant height: 1.15 % of untreated
  ifference between A1222T vs A205V/A122T, Phytotoxicity Index: 0.00
  ifference between A1222T vs A205V/A122T, biomass accumulation: −0.73 % of untreated
5x=400 g ai/ha
  Difference between A205V vs A205V/A122T, Phytotoxicity Index: 7.59
  Difference between A205V vs A205V/A122T, biomass accumulation: −46.69 % of untreated
  Difference between A205V vs A205V/A122T, plant height: −48.59 % of untreated
  Difference between A1222T vs A205V/A122T, plant height: 9.12 % of untreated
  ifference between A1222T vs A205V/A122T, Phytotoxicity Index: 0.21
  ifference between A1222T vs A205V/A122T, biomass accumulation: −1.14 % of untreated
6x=480 g ai/ha
  Difference between A205V vs A205V/A122T, Phytotoxicity Index: 7.19
  Difference between A205V vs A205V/A122T, biomass accumulation: −41.41 % of untreated
  Difference between A205V vs A205V/A122T, plant height: −31.39 % of untreated
  Difference between A1222T vs A205V/A122T, plant height: 19.49 % of untreated
  ifference between A1222T vs A205V/A122T, Phytotoxicity Index: 0.17
  ifference between A1222T vs A205V/A122T, biomass accumulation: 2.41 % of untreated
A122T homozygous lines, 0.5x
  Height reduction: 0.1%
A122T homozygous, higher dose (6x)
  Biomass weight reduction: 25%
A205V homozygous lines and hybrid, 0.5x or 1x
  Height versus untreated controls: did not differ from the untreated controls
[1]
  Phytotoxicity Index (scale 0-9): 0
  biomass accumulation (dry): 95.0 % of untreated
H1 (A205V hybrid), 1x=80 g ai/ha
  Phytotoxicity Index (scale 0-9): 0
H1 (A205V hybrid), 2x=160 g ai/ha
  Phytotoxicity Index (scale 0-9): 1.8
H1 (A205V hybrid), 3x=240 g ai/ha
  Phytotoxicity Index (scale 0-9): 6.4
H1 (A205V hybrid), 4x=320 g ai/ha
  Phytotoxicity Index (scale 0-9): 8.0
H1 (A205V hybrid), 5x=400 g ai/ha
  Phytotoxicity Index (scale 0-9): 8.9
H1 (A205V hybrid), 6x=480 g ai/ha
  Phytotoxicity Index (scale 0-9): 9.0
[2]
  Phytotoxicity Index (scale 0-9): 0.5
  biomass accumulation (dry): 100 % of untreated
H2 (A122T hybrid), 1x=80 g ai/ha
  Phytotoxicity Index (scale 0-9): 0.5
H2 (A122T hybrid), 2x=160 g ai/ha
  Phytotoxicity Index (scale 0-9): 0.5
H2 (A122T hybrid), 3x=240 g ai/ha
  Phytotoxicity Index (scale 0-9): 0.5
H2 (A122T hybrid), 4x=320 g ai/ha
  Phytotoxicity Index (scale 0-9): 0.5
[3]
  Phytotoxicity Index (scale 0-9): 0.5
  plant height: 87.0 % of untreated
H2 (A122T hybrid), 6x=480 g ai/ha
  Phytotoxicity Index (scale 0-9): 0.5
H3 (A122T/A205V hybrid), 0.5x=40 g ai/ha
  Phytotoxicity Index (scale 0-9): 0.5
[4]
  Phytotoxicity Index (scale 0-9): 0.5
  biomass accumulation (dry): 100.0 % of untreated
  plant height: 97.0 % of untreated
H3 (A122T/A205V hybrid), 2x=160 g ai/ha
  Phytotoxicity Index (scale 0-9): 0.5
H3 (A122T/A205V hybrid), 3x=240 g ai/ha
  Phytotoxicity Index (scale 0-9): 0.5
[5]
  Phytotoxicity Index (scale 0-9): 0.5
  plant height: 92.0 % of untreated
H3 (A122T/A205V hybrid), 5x=400 g ai/ha
  Phytotoxicity Index (scale 0-9): 0.6
[6]
  Phytotoxicity Index (scale 0-9): 1.0
  plant height: 58.0 % of untreated
[7]
  Phytotoxicity Index (scale 0-9): 0.0
  plant height: 100.0 % of untreated
H4 (A122T/A205V hybrid), 1x=80 g ai/ha
  Phytotoxicity Index (scale 0-9): 0.0
[8]
  Phytotoxicity Index (scale 0-9): 0.0
  plant height: 100.0 % of untreated
[9]
  Phytotoxicity Index (scale 0-9): 0.0
  plant height: 100.0 % of untreated
H4 (A122T/A205V hybrid), 4x=320 g ai/ha
  Phytotoxicity Index (scale 0-9): 0.0
